{"source": "patent US10493077B2", "about": "“Fused imidazo-piperidine JAK inhibitor compound” (THERAVANCE BIOPHARMA R&D IP, LLC, priority 2017, dated 2019)", "key": {"JAK3": {"target": "T1, JAK3 (Homo sapiens, UniProt P52333)", "T1 construct": "GST; purchased Life Technologies", "T1 sequence (P52333 whole entry)": "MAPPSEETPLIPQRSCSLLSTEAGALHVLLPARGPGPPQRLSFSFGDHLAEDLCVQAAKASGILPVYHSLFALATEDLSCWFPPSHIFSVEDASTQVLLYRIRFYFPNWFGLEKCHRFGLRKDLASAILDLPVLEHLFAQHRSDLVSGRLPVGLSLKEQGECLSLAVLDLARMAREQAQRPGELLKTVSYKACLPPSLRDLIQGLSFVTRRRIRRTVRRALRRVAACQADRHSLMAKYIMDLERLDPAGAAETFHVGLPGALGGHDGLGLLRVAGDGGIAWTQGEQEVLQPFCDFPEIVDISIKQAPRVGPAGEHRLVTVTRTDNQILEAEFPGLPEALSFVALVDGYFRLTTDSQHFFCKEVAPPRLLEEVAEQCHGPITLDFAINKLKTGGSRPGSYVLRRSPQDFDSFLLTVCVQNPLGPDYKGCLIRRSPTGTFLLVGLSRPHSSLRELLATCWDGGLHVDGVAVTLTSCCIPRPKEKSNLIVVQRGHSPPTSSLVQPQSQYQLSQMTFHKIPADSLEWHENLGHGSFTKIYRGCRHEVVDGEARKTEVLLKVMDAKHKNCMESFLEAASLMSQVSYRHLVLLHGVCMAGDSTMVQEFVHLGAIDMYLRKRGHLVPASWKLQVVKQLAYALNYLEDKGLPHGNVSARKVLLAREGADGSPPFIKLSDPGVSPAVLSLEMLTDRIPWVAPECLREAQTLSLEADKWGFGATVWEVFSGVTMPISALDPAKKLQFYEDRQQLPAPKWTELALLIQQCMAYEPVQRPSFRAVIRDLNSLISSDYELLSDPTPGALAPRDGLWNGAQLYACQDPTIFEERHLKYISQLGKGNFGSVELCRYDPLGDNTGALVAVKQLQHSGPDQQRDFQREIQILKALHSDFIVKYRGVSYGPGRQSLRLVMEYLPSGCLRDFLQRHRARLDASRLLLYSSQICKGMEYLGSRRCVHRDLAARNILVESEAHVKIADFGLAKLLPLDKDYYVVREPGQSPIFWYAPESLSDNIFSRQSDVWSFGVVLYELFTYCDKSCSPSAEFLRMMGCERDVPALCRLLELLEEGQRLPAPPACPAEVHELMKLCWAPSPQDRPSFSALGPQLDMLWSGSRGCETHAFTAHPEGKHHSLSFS", "assay": "LanthaScreen JAK biochemical assay, JAK3", "conditions": "read-out: JAK 3 pKi (converted)", "description": "A panel of four LanthaScreen JAK biochemical assays (JAK1, 2, 3 and Tyk2) were carried in a common kinase reaction buffer (50 mM HEPES, pH 7.5, 0.01% Brij-35, 10 mM MgCl2, and 1 mM EGTA). Recombinant GST-tagged JAK enzymes and a GFP-tagged STAT1 peptide substrate were obtained from Life Technologies.\nSerially diluted compound was pre-incubated with each of the four JAK enzymes and the substrate in white 384-well microplates (Corning) at ambient temperature for 1 h. ATP was subsequently added to initiate the kinase reactions in 10 μL total volume, with 1% DMSO. […] The plates were allowed to incubate at ambient temperature for 1 h before being read on the EnVision reader (Perkin Elmer). Emission ratio signals (520 nm/495 nm) were recorded and utilized to calculate the percent inhibition values based on DMSO and background controls.\nFor dose-response analysis, percent inhibition data were plotted vs. compound concentrations, and IC50 values were determined from a 4-parameter robust fit model with the Prism software (GraphPad Software). Results were expressed as pIC50 (negative logarithm of IC50) and subsequently converted to pKi (negative logarithm of dissociation constant, Ki) using the Cheng-Prusoff equation."}, "IFNγ induced IP-10": {"test_system": "IFNγ induced IP-10", "assay": "Pharmacodynamic assay: inhibition of IFNγ-induced IP-10 in rabbit eyes", "assay_type": "in vivo", "conditions": "Form 1 suspension, 0.9 mg intravitreal, 1 week pre-treatment, New Zealand White rabbits", "description": "The ability of a single intravitreal administration of test compound to inhibit interferon-gamma (IFNγ) induced IP-10 protein levels was measured in rabbit vitreous and retina/choroid tissues.\n(§1) A suspension formulation was prepared by combining compound 1 of Example 2 (Form 1), with 0.5% hydroxypropyl methylcellulose (HPMC E5), 0.02% Tween 80, and 9 mg/mL sodium chloride in purified water to attain a target concentration of 20 mg/mL.\nMale, New Zealand White rabbits (Liveon Biolabs, India) were used for the studies. Animals were acclimated after arrival at the research facilities (Jubilant Biosys Ltd., India). Each rabbit was given a total of two intravitreal (IVT) injections with a total dose volume of 50 μL per eye. The first IVT injection (45 μL per eye) delivered 0.9 mg of test compound or vehicle. One week later, a second IVT injection (5 μL per eye) delivered IFNγ (1 μg/eye; stock solution 1 mg/mL; Kingfisher Biotech) or vehicle for the induction of IP-10. […]\nTissues were collected 24 hours after the second IVT injection with IFNγ. Vitreous humor (VH) and retina/choroid tissues (R/C) were collected and homogenized, and IP-10 protein levels were measured using a rabbit CXCL10 (IP-10) ELISA kit (Kingfisher Biotech). The percent inhibition of IFNγ-induced IP-10 was calculated in comparison to the vehicle/vehicle and vehicle/IFNγ groups."}, "IFNγ induced pSTAT1": {"test_system": "IFNγ induced pSTAT1", "assay": "Pharmacodynamic assay: inhibition of IFNγ-induced pSTAT1 in rabbit eyes", "assay_type": "in vivo", "conditions": "rabbits", "description": "The ability of a single intravitreal administration of test compound to inhibit interferon-gamma (IFNγ) induced phosphorylation of STAT1 protein (pSTAT1) was measured in rabbit retina/choroid tissue.\nas §1\nMale, New Zealand White rabbits (Liveon Biolabs, India) were used for the studies. Animals were acclimated after arrival at the research facilities (Jubilant Biosys Ltd., India). Each rabbit was given a total of two intravitreal (IVT) injections with a total dose volume of 50 μL per eye. The first IVT injection (45 μL per eye) delivered 0.9 mg of test compound or vehicle. […] On the day of the injections, rabbits were anesthetized with an intramuscular injection of ketamine (35 mg/kg) and xylazine (5 mg/kg). Once deeply anesthetized, each eye was rinsed with sterile saline and IVT injections were performed using a 0.5 mL insulin syringe (50 units=0.5 mL) with a 31-gauge needle at the supra-nasal side of the both eyes by marking the position with a Braunstein fixed caliper (2¾″) 3.5 mm from the rectus muscle and 4 mm from the limbus.\nTissues were collected 2 hours after the second IVT injection with IFNγ. Retina/choroid tissues (R/C) were collected and homogenized, and pSTAT1 levels were measured by quantitative Western Blot on the ProteinSimple WES instrument. The percent inhibition of IFNγ-induced pSTAT1 was calculated in comparison to the vehicle/vehicle and vehicle/IFNγ groups.\nMale, New Zealand White rabbits (Liveon Biolabs, India) were used for the studies. Animals were acclimated after arrival at the research facilities (Jubilant Biosys Ltd., India). Each rabbit was given a total of two intravitreal (IVT) injections with a total dose volume of 50 μL per eye. The first IVT injection (45 μL per eye) delivered 500 μg, 150 μg, or 50 μg of test compound or vehicle. Two weeks later, a second IVT injection (5 μL per eye) delivered IFNγ (1 μg/eye; stock solution 1 mg/mL; Kingfisher Biotech) or vehicle for the induction of IP-10. On the day of the injections, rabbits were anesthetized with an intramuscular injection of ketamine (35 mg/kg) and xylazine (5 mg/kg). Once deeply anesthetized, each eye was rinsed with sterile saline and IVT injections were performed using a 0.5 mL insulin syringe (50 units=0.5 mL) with a 31-gauge needle at the supra-nasal side of the both eyes by marking the position with a Braunstein fixed caliper (2¾″) 3.5 mm from the rectus muscle and 4 mm from the limbus."}}}
{"smiles": "CCc1cc(O)c(F)cc1-c1cc(F)c2c(-c3nc4c([nH]3)CCN(C(=O)CN3CCOCC3)C4)n[nH]c2c1", "note": "[Compound 1, 1-(2-(6-(2-ethyl-5-fluoro-4-hydroxyphenyl)-4-fluoro-1H-indazol-3-yl)-1,4,6,7-tetrahydro-5H-imidazo[4,5-c]pyridin-5-yl)-2-morpholinoethan-1-one]", "values": [{"measurement": "Ki", "setting": "JAK3", "value": 200, "unit": "pM"}, {"measurement": "inhibition of IFNγ-induced IP-10 in retina/choroid tissues", "setting": "IFNγ induced IP-10", "value": 80, "unit": "%"}, {"measurement": "inhibition of IFNγ-induced IP-10 in vitreous humor", "setting": "IFNγ induced IP-10", "value": 81, "unit": "%"}, {"measurement": "inhibition of IFNγ-induced pSTAT1 in retina/choroid", "setting": "IFNγ induced pSTAT1; Form 1 suspension, 0.9 mg intravitreal, 1 week pre-treatment", "value": 85, "unit": "%"}, {"measurement": "inhibition of IFNγ-induced pSTAT1 in retina/choroid", "setting": "IFNγ induced pSTAT1; Form 1 suspension, single intravitreal dose, 3 month pre-treatment", "value": 76, "unit": "%"}, {"measurement": "inhibition of IFNγ-induced pSTAT1 in retina/choroid", "setting": "IFNγ induced pSTAT1; Form 2 suspension, 50 μg intravitreal, 2 week pre-treatment", "value": 61, "unit": "%"}, {"measurement": "inhibition of IFNγ-induced pSTAT1 in retina/choroid", "setting": "IFNγ induced pSTAT1; Form 2 suspension, 150 μg intravitreal, 2 week pre-treatment", "value": 58, "unit": "%"}, {"measurement": "inhibition of IFNγ-induced pSTAT1 in retina/choroid", "setting": "IFNγ induced pSTAT1; Form 2 suspension, 500 μg intravitreal, 2 week pre-treatment", "value": 79, "unit": "%"}]}
